Values quoted from earlier work as cited in patent US7834038B2, “Methods for preparing nonpeptidic oligomers from amino acids” (New York University, priority 2005, dated 2010).
Entries after “also recorded” stand apart in the source; their conditions may differ.

Target: HIV-1 protease (Human immunodeficiency virus type 1 group M subtype B, UniProt P04585)
Details: known inhibitors, statement in words

Row | Structure (SMILES) | inhibition of HIV-1 protease
1 | CC(C)[C@H](NC(=O)OCc1ccccc1)C(=O)N[C@@H](Cc1ccccc1)[C@@H](O)[C@H](Cc1ccccc1)NC(=O)[C@H](NC(=O)OCc1ccccc1)C(C)C [A-74704] | very high affinities; also recorded: powerful inhibitor
2 | O=C(N[C@H]1c2ccccc2C[C@H]1O)[C@H](Cc1ccccc1)CC(O)C[C@@H](Cc1ccccc1)C(=O)N[C@H]1c2ccccc2C[C@H]1O [L-700,417] | very high affinities
